Experimental data reported in PubChem BioAssay (NCI).
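Tested at 5 concentrations; 48 h exposure; 96-well plates; endpoints linearly interpolated, else capped at highest concentration. The concentration for full growth arrest is given as TGI.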

Key:
Assay in all cases: inhibition of tumour cell growth, NCI panel, 48 h
SF-539 CNS = system: SF-539 CNS
U251 CNS = system: U251 CNS
RXF 393 renal = system: RXF 393 renal
HCC-2998 colon = system: HCC-2998 colon
SN12C renal = system: SN12C renal
OVCAR-3 ovarian = system: OVCAR-3 ovarian
CAKI-1 renal = system: CAKI-1 renal
HS 578T breast = system: HS 578T breast
HOP-62 NSCLC = system: HOP-62 NSCLC
UACC-257 melanoma = system: UACC-257 melanoma
BT-549 breast = system: BT-549 breast
A498 renal = system: A498 renal
SK-MEL-5 melanoma = system: SK-MEL-5 melanoma

SMILES	TGI (SF-539 CNS) [µM]	TGI (U251 CNS) [µM]	TGI (RXF 393 renal) [µM]	TGI (HCC-2998 colon) [µM]	TGI (SN12C renal) [µM]	TGI (OVCAR-3 ovarian) [µM]	TGI (CAKI-1 renal) [µM]	TGI (HS 578T breast) [µM]	TGI (HOP-62 NSCLC) [µM]	TGI (UACC-257 melanoma) [µM]	TGI (BT-549 breast) [µM]	TGI (A498 renal) [µM]	TGI (SK-MEL-5 melanoma) [µM]
C=CCN1C(=O)/C(=C/c2ccccc2)N=C1SC/C=C/C	> 100	> 100	46.7	76.6	> 100	> 100	> 100	> 100	> 100	74.5	> 100	> 100	47.6
N/C(=N\Nc1cccc(Cl)c1)c1cccnc1	> 60.8	> 100	> 80.3	> 100	> 100	> 86.3	> 100	> 100	> 100	> 81.5	> 100	87.4	> 88
COP(=N[Si](C)(C)C)(OC)OC	> 100	> 100	> 100	> 100	> 100	> 100	> 100	> 100	> 100	> 100	> 100	> 100	> 100
c1ccc2c(c1)Sc1ccccc1N2CCCN1c2ccccc2Sc2ccccc21	> 100	> 100	> 100	> 100	> 100	> 100	> 100	> 100	> 100	> 100	> 100	> 100	> 100
Cc1nc2ccc(S(=O)(=O)Nc3ccccn3)cc2c(=O)n1NS(=O)(=O)c1ccccn1	> 100	> 100	> 100	> 100	> 100	> 100	> 100	> 100	> 100	> 100	> 100	> 100	> 100
N#Cc1c(Cl)cccc1Oc1ccc(S(=O)(=O)/N=C(\NO)Nc2ccc(Cl)cc2)cc1	32.3	33.1	32.2	29	29.4	29.2	29.2	71.1	34.1	32.1	30.9	30.6	31
CC(C)/C(Cl)=N/OC(NC(=O)Nc1ccc(Cl)c(Cl)c1)(C(F)(F)F)C(F)(F)F	33.2	33.2	9.23	36	33.9	11.3	3.61	99.4	42.5	25.9	25.7	34.7	29.3
O=C1CSC2(CC(/C=C/c3cccc(Br)c3)=NN2c2cccc(S(=O)(=O)O)c2)N1c1nc2ccccc2s1 (stereo not given)	> 100	> 100	> 100	> 100	> 100	> 100	> 100	> 100	> 100	> 100	> 100	> 100	> 100
Clc1ccccc1-c1nn2c(CCCCCCCCc3nnc4sc(-c5ccccc5Cl)nn34)nnc2s1	> 100	> 100	> 100	> 100	> 100	> 100	> 100	> 100	> 100	> 100	> 100	> 100	> 100
O=C(/C=C/c1ccsc1)c1cccs1	> 100	44.2	42.9	34.7	41.9	57.3	> 100	> 100	> 100	> 100	48	> 100	36.3
COc1ccc(C[C@H]2NC[C@H](OC(C)=O)[C@H]2OC(C)=O)cc1	10.4	1.6	0.651	0.357	0.752	0.85	0.544	0.465	2.75	2.98	0.564	4.27	0.345
CC(=O)O[C@H]1CC[C@@]2(C)C(=CC[C@H]3[C@@H]4C[C@H](N5CCN(C)CC5)[C@H](OC(C)=O)[C@@]4(C)CC[C@@H]32)C1	13.7	40.5	40.3	30.1	67.8	21.5	> 66.5	61.8	52.6	17.3	32.8	48.3	12.5
CNc1nc2c(C)ccc3nc(N(C)C)nc-3c2n1C	> 10	> 10	> 10	> 10	> 10	> 10	> 10	> 10	> 10	> 10	> 10	> 10	> 10
O=c1ccc(-c2ccc(-n3ccnc3)cc2)nn1CCO	> 100	> 100	> 100	> 100	> 100	> 100	> 100	> 100	> 100	> 100	> 100	> 100	> 100
COc1ccc2c(c1)nc1n2C(c2c(F)cccc2F)SC1 (stereo not given)	> 100	> 100	> 100	> 100	> 100	> 100	> 100	> 100	> 100	> 100	> 100	> 100	56.4
